In US20260130395A1, “Water Dispersible Botanical Compositions” (Aquila Black Limited, priority 2021, published 2026):

Assay: Stability of cannabinoid compounds and Vitamin E components in Beverage 2 (AB Red) by LCMSMS
Assay type: physicochemical

CC(=O)Oc1c(C)c(C)c2c(c1C)CCC(C)(CCC[C@H](C)CCC[C@H](C)CCCC(C)C)O2 (stereo partly drawn) [α-Tocopheryl acetate]
Stability of Vitamin Es in AB Red (stored at 8° C., 0 days): 12.5 µg/mL
Stability of Vitamin Es in AB Red (stored at 8° C., 1 days): 11.6 µg/mL
Stability of Vitamin Es in AB Red (stored at 8° C., 2 days): 11.5 µg/mL
Stability of Vitamin Es in AB Red (stored at 8° C., 3 days): 11.6 µg/mL
Stability of Vitamin Es in AB Red (stored at 8° C., 5 days): 12.3 µg/mL
Stability of Vitamin Es in AB Red (stored at 8° C., 8 days): 12.2 µg/mL
Stability of Vitamin Es in AB Red (stored at 8° C., 9 days): 12.1 µg/mL
Stability of Vitamin Es in AB Red (stored at 8° C., 10 days): 12.6 µg/mL
Stability of Vitamin Es in AB Red (stored at 8° C., 11 days): 11.9 µg/mL
Stability of Vitamin Es in AB Red (stored at 8° C., 12 days): 12.4 µg/mL
Stability of Vitamin Es in AB Red (stored at 8° C., 15 days): 12.0 µg/mL
Stability of Vitamin Es in AB Red (stored at 8° C., 16 days): 11.5 µg/mL
Stability of Vitamin Es in AB Red (stored at 8° C., 17 days): 11.8 µg/mL
Stability of Vitamin Es in AB Red (stored at 8° C., 18 days): 12.5 µg/mL
Stability of Vitamin Es in AB Red (stored at 8° C., 19 days): 12.5 µg/mL
Stability of Vitamin Es in AB Red (stored at 8° C., 22 days): 12.5 µg/mL
Stability of Vitamin Es in AB Red (stored at 8° C., 23 days): 11.9 µg/mL
Stability of Vitamin Es in AB Red (stored at 8° C., 24 days): 12.6 µg/mL
Stability of Vitamin Es in AB Red (stored at 8° C., 25 days): 12.3 µg/mL
Stability of Vitamin Es in AB Red (stored at 8° C., 26 days): 11.6 µg/mL
Stability of Vitamin Es in AB Red (stored at 8° C., 29 days): 11.7 µg/mL
Stability of Vitamin Es in AB Red (stored at 8° C., 30 days): 12.1 µg/mL
Stability of Vitamin Es in AB Red (stored at 8° C., 60 days): 11.4 µg/mL
Stability of Vitamin Es in AB Red (stored at 8° C., 90 days): 11.6 µg/mL
Stability of Vitamin Es in AB Red (stored at 8° C., 120 days): 11.7 µg/mL
Stability of Vitamin Es in AB Red (stored at 8° C., 150 days): 12.3 µg/mL
Stability of Vitamin Es in AB Red (stored at 8° C., 180 days): 12.6 µg/mL
Stability of Vitamin Es in AB Red (stored at 8° C., 210 days): 11.8 µg/mL
Stability of Vitamin Es in AB Red (stored at 8° C., 240 days): 11.2 µg/mL
Stability of Vitamin Es in AB Red (stored at 8° C., 270 days): 11.6 µg/mL
Stability of Vitamin Es in AB Red (stored at 8° C., 300 days): 11.2 µg/mL
Stability of Vitamin Es in AB Red (stored at 8° C., 330 days): 11.3 µg/mL
Stability of Vitamin Es in AB Red (stored at 8° C., 360 days): 11.3 µg/mL
Stability of Vitamin Es in AB Red (stored at 8° C., 390 days): 11.4 µg/mL
Stability of Vitamin Es in AB Red (stored at 8° C., 420 days): 11.2 µg/mL
Stability of Vitamin Es in AB Red (stored at 8° C., 450 days): 11.4 µg/mL
Stability of Vitamin Es in AB Red (stored at 8° C., 480 days): 10.7 µg/mL
Stability of Vitamin Es in AB Red (stored at 8° C., 510 days): 10.6 µg/mL
Stability of Vitamin Es in AB Red (stored at 8° C., 540 days): 10.8 µg/mL
Stability of Vitamin Es in AB Red (stored at 8° C., 570 days): 10.8 µg/mL
Stability of Vitamin Es in AB Red (stored at 21-25° C., 0 days): 12.5 µg/mL
Stability of Vitamin Es in AB Red (stored at 21-25° C., 1 days): 12.1 µg/mL
Stability of Vitamin Es in AB Red (stored at 21-25° C., 2 days): 12.5 µg/mL
Stability of Vitamin Es in AB Red (stored at 21-25° C., 3 days): 11.7 µg/mL
Stability of Vitamin Es in AB Red (stored at 21-25° C., 5 days): 12.2 µg/mL
Stability of Vitamin Es in AB Red (stored at 21-25° C., 8 days): 11.4 µg/mL
Stability of Vitamin Es in AB Red (stored at 21-25° C., 9 days): 11.6 µg/mL
Stability of Vitamin Es in AB Red (stored at 21-25° C., 10 days): 12.5 µg/mL
Stability of Vitamin Es in AB Red (stored at 21-25° C., 11 days): 12.3 µg/mL
Stability of Vitamin Es in AB Red (stored at 21-25° C., 12 days): 12.3 µg/mL
Stability of Vitamin Es in AB Red (stored at 21-25° C., 15 days): 12.1 µg/mL
Stability of Vitamin Es in AB Red (stored at 21-25° C., 16 days): 12.1 µg/mL
Stability of Vitamin Es in AB Red (stored at 21-25° C., 17 days): 11.3 µg/mL
Stability of Vitamin Es in AB Red (stored at 21-25° C., 18 days): 12.0 µg/mL
Stability of Vitamin Es in AB Red (stored at 21-25° C., 19 days): 12.0 µg/mL
Stability of Vitamin Es in AB Red (stored at 21-25° C., 22 days): 12.1 µg/mL
Stability of Vitamin Es in AB Red (stored at 21-25° C., 23 days): 11.7 µg/mL
Stability of Vitamin Es in AB Red (stored at 21-25° C., 24 days): 11.5 µg/mL
Stability of Vitamin Es in AB Red (stored at 21-25° C., 25 days): 12.4 µg/mL
Stability of Vitamin Es in AB Red (stored at 21-25° C., 26 days): 12.0 µg/mL
Stability of Vitamin Es in AB Red (stored at 21-25° C., 29 days): 11.9 µg/mL
Stability of Vitamin Es in AB Red (stored at 21-25° C., 30 days): 12.6 µg/mL
Stability of Vitamin Es in AB Red (stored at 21-25° C., 60 days): 11.6 µg/mL
Stability of Vitamin Es in AB Red (stored at 21-25° C., 90 days): 12.3 µg/mL
Stability of Vitamin Es in AB Red (stored at 21-25° C., 120 days): 12.3 µg/mL
Stability of Vitamin Es in AB Red (stored at 21-25° C., 150 days): 11.4 µg/mL
Stability of Vitamin Es in AB Red (stored at 21-25° C., 180 days): 12.0 µg/mL
Stability of Vitamin Es in AB Red (stored at 21-25° C., 210 days): 11.6 µg/mL
Stability of Vitamin Es in AB Red (stored at 21-25° C., 240 days): 11.3 µg/mL
Stability of Vitamin Es in AB Red (stored at 21-25° C., 270 days): 11.4 µg/mL
Stability of Vitamin Es in AB Red (stored at 21-25° C., 300 days): 11.2 µg/mL
Stability of Vitamin Es in AB Red (stored at 21-25° C., 330 days): 11.6 µg/mL
Stability of Vitamin Es in AB Red (stored at 21-25° C., 360 days): 11.1 µg/mL
Stability of Vitamin Es in AB Red (stored at 21-25° C., 390 days): 11.3 µg/mL
Stability of Vitamin Es in AB Red (stored at 21-25° C., 420 days): 11.3 µg/mL
Stability of Vitamin Es in AB Red (stored at 21-25° C., 450 days): 11.2 µg/mL
Stability of Vitamin Es in AB Red (stored at 21-25° C., 480 days): 10.4 µg/mL
Stability of Vitamin Es in AB Red (stored at 21-25° C., 510 days): 10.4 µg/mL
Stability of Vitamin Es in AB Red (stored at 21-25° C., 540 days): 10.6 µg/mL
Stability of Vitamin Es in AB Red (stored at 21-25° C., 570 days): 10.6 µg/mL
